Assays:
Lyme disease = assay: Lyme Disease Case Study #2; assay type: in vivo, human; settings: treatments before coACT A-B, person
Description: They worked as a full-time project manager for a non-profit food bank, and lives in the United States. Their symptoms first appeared in August of 2010. When […] was first diagnosed they had skin rashes that were not helped with topical treatments, low-grade fevers, severe migraines, continuous muscle aches, sore throat, stomach pain, joint pains, gynecological issues, and constant fatigue. The initial indication was hives on stomach and back which grew to circular rashes on both thighs, all directly following an insect bite from a horse fly.
From these professionals they were diagnosed not only with Lyme disease, but the following diagnoses and/or misdiagnoses: fibromyalgia, depression, arthritis, pinched nerve, burning mouth syndrome, and mycotoxic poisoning. By May 2011 they were confirmed with Lyme disease and subsequently reconfirmed by another physician in August 2011. Their case of Lyme disease was clinically diagnosed based on lab findings, Western Blot, and symptomatology. […] Tindamax was likewise not tolerated. […] Other anti-fungals caused pain and further reduced their energy levels.
[…] […] They reported climbing the lighthouse stairs in St. Augustine, Fla. without suffering a decrease in energy afterwards, which was atypical for them at that time. […] Kathy has stated that coACT provided them with “a few really good weeks which is invaluable when you haven't functioned normally for some time. For chronic long-term patients, I suspect additional dosing (like every few months or so) is necessary. For newcomers or uncomplicated cases, it could be a bridge to health and healing.

JCV = settings: literature case reports; cited from earlier work
chikungunya virus = settings: 250 mg/day; cited from earlier work
chikungunya disease = settings: cell culture and monkeys; cited from earlier work

| Compound | outcome of earlier treatments in patient history (Lyme disease) | other results |
| --- | --- | --- |
| Nc1nc2c(ncn2COCCO)c(=O)[nH]1 [Acyclovir] | caused their symptoms to worsen in that they could not lift their arms |  |
| CCCSc1ccc2nc(NC(=O)OC)[nH]c2c1 [Albendazole] | seemed to help them with passing parasites |  |
| Nc1ccn([C@@H]2O[C@H](CO)[C@@H](O)[C@@H]2O)c(=O)n1 [Cytarabine] |  | clinical outcome in PML patients (JCV): stabilized the neurological condition of a minority of these patients |
| C[C@@H]1[C@H](O)[C@@H](C)/C=C/C=C/CC/C=C/C=C/C=C/C=C/C(O[C@H]2O[C@H](C)[C@@H](O)[C@H](N)[C@@H]2O)CC2O[C@](O)(CC(O)C(O)CCC(O)CC(O)CC(O)CC(=O)O[C@H]1C)CC(O)C2C(=O)O (some centres unmarked) [Nystatin] | neither of which made any detectable difference |  |
| CN1CCCN=C1/C=C/c1cccs1.O=C(O)c1cc2ccccc2c(Cc2c(O)c(C(=O)O)cc3ccccc23)c1O [Pyrantal Pamoate] | helped them to pass parasites in their stool, but left their lifeless, dizzy, and with nystagmus |  |
| CO/N=C(\C(=O)N[C@@H]1C(=O)N2C(C(=O)O)=C(CSc3nc(=O)c(=O)[nH]n3C)CS[C@H]12)c1csc(N)n1 [Rocephin] | helped restore their energy, but caused an allergic reaction |  |
| CCS(=O)(=O)CCn1c([N+](=O)[O-])cnc1C [Tindamax] | not tolerated |  |
| CCN(CC)CCCC(C)Nc1ccnc2cc(Cl)ccc12 (centres unmarked) [chloroquine phosphate] |  | effect on arthritis-like symptoms not relieved by aspirin and NSAID (chikungunya virus): promising results |
| CCN(CC)CCCC(C)Nc1ccnc2cc(Cl)ccc12 (centres unmarked) [chloroquine] |  | reduction of chikungunya disease (chikungunya disease): no effect |
| OC(c1cc(C(F)(F)F)nc2c(C(F)(F)F)cccc12)C1CCCCN1 (centres unmarked) [mefloquine] |  | clinical outcome in PML patients (JCV): seemed to eliminate the virus from the patient's body and prevented further neurological deterioration |
| Ivermectin | helped them to pass parasites in their stool, but left their lifeless, dizzy, and with nystagmus |  |

— patent US9358261B2, “Additional artemisinin and berberine compositions and methods of making” (U.S. Phytotherapy, Inc., priority 2011, dated 2016)
